Results: US6894021B2, “Method for identifying and using A2B adenosine receptor antagonists to mediate mammalian cell proliferation” (CV Therapeutics, Inc., priority 2000, dated 2005)
Entries after “also recorded” stand apart in the source; their conditions may differ.

Key:
Type in all cases: cell-based
[1] = system: human retinal endothelial cells (HREC); assay: HREC proliferation assay (cell counting, Coulter Counter); settings: for Effect on NECA-induced HREC proliferation: antagonist 10 μmol/L with NECA 10 μmol/L, FIG. 1A
Method: (§1) Primary cultures of HREC were prepared and maintained as previously described and cells in passage 3-6 were used for these studies. […] To maintain purity of HREC, several precautionary steps were taken. […] In addition, cultures of HREC were exposed to trypsin for only 45 sec prior to passage. Endothelial cells float off during this short trypsin treatment while pericytes remain attached to the substrate.
HREC were seeded at 10 cells/cm in 24 well plates and allowed to adhere overnight. Cells were washed in Hank's balanced salt solution and the medium was replaced with serum—and growth supplement-free medium (SFM) for 24 hr to induce cell-cycle arrest. Cells were washed again and pre-treated with 1 U/mL adenosine deaminase (ADA) for 30 min. […] Controls were HREC exposed to SFM or normal growth medium. For the next three days at 24-hour intervals replicate wells were treated with trypsin and the cells were collected and counted using a Coulter Counter. Each condition was examined in triplicate in three separate experiments using cells from different donors for each experiment.

[2] = system: human retinal endothelial cells (HREC); assay: Endothelial cell chemotaxis / chemokinesis in blind-well (Boyden) chambers; settings: for Effect on NECA-stimulated HREC migration (chemotaxis): antagonist 10 μmol/L co-added with NECA 10 μmol/L
Method: as §1
Endothelial cell chemotaxis was measured in blind-well chemotaxis chambers (Neuroprobe, Inc, Bethesda, Md.) as previously described. Briefly a single cell suspension of endothelial cells ([…] cells/well) was prepared and treated with ADA (1 U/mL). Thirty microliters of this suspension was placed in each of 48 lower wells of the blind-well apparatus. The wells were overlaid with a porous (5 μm diameter pore) polyvinyl—and pyrrolidone-free polycarbonate membrane (Nucleopore, Pleasanton, Calif.), coated with 0.1% dermal collagen. The cells were allowed to attach to the membrane by inverting the chamber of 2 h. The chambers were then placed upright and exposed to NECA alone (10 μmol/L), NECA combined with 3-N-propylxanthine (10 μmol/L), JW-V1-08 (10 μmol/L) or the non-selective AdoR antagonist xanthine amine congener (XAC, 10 μmol/L) in a 50 μL volume. After incubation for 12 h, the membrane was recovered and scraped free of cells on the attachment side. The remaining cells, those that had migrated through the pores, were fixed in methanol, is stained with modified Wright's stain and then counter-stained with haematoxylin and eosin. The positive control was 10% fetal bovine serum and the negative control was 1% ablumin. Chemokinesis, the non-oriented increase in cell migration in response to a stimulus, was measured by adding equal concentration of NECA or NECA plus one of the antagonists to both lower and upper chambers. Treatment conditions were examined in triplicate in three separate experiments.

[3] = system: human retinal endothelial cells (HREC); assay: Matrigel assay of endothelial tube formation; settings: 48 h; for Effect on NECA-induced tube formation on Matrigel (photomicrographs): antagonist 10 μmol/L with NECA 10 μmol/L, FIG. 2C, 2D; for Total tube length in the presence of NECA: antagonist added to NECA, NECA alone 74.2±2.4
Method: as §1
Endothelial tube formation was assessed on Matrigel. Briefly, Matrigel was thawed and kept at 4° C. Multi-well plates and pipette tips were chilled to −20° C. and Matrigel (125 μL) was added to each well of a 48-well plate and allowed to harden for a minimum of 1 h at 37° C. HREC were dissociated enzymatically (2 min at 37° C. in 0.25% Trypsin-EDTA), centrifuged (300×g, 5 min) and re-suspended in serum-free media. Test agents (100 μL) were prepared at 2× final concentration and 100 μL were added to wells. HREC (3×10 in 100 μL per well) were then added and plates were incubated at 37° C. Wells were photographed 48 h after plating. Identical fields in each well were photographed to minimize the possible variation due to variable cell density caused by the settling of cells. […] All conditions were tested in duplicate wells in three separate experiments using cells from different donors.

| Structure (SMILES) | Effect on NECA-induced HREC proliferation [1] | Effect on NECA-stimulated HREC migration (chemotaxis) ([2]; 12 h, FIG. 1B) | Effect on NECA-induced tube formation on Matrigel (photomicrographs) [3] | Total tube length in the presence of NECA ([3]; p<0.01) [pixel] | HREC proliferation by cell counts, as density relative to cells exposed to normal growth medium ([1]; NECA 10 μmol/L, 3 days, ADA-pretreated serum-starved HREC) | HREC chemotaxis / migration ([2]; NECA alone versus unstimulated cells, 12 h, FIG. 1B) | Chemokinesis (non-oriented increase in cell migration) ([2]; equal concentration in lower and upper chambers) | Endothelial cell tube formation on Matrigel (photomicrographs) ([3]; NECA 10 μmol/L alone, FIG. 2B) | Increase of tube length over untreated cells ([3]; NECA alone) | Total tube length ([3]; NECA alone, untreated cells 35.7±1.6, p<0.01) [pixel] |
| --- | --- | --- | --- | --- | --- | --- | --- | --- | --- | --- |
| CCCn1c(=O)[nH]c(=O)c2[nH]cnc21 [3-N-propylxanthine] | completely blocked; also recorded: completely block the proliferative effect of NECA | antagonized the stimulatory effect of NECA on chemotaxis | diminished NECA-induced tube formation; also recorded: inhibited tube formation, resulting in fewer tubes of shorter length | 53.7±0.9 | – | – | – | – | – | – |
| CC(C)Cn1c(=O)[nH]c(=O)c2[nH]c(N3CCCC3)nc21 [JW-V1-08, 3-isobutyl-8-pyrrolidinoxanthine] | completely blocked; also recorded: completely block the proliferative effect of NECA | antagonized the stimulatory effect of NECA on chemotaxis | diminished NECA-induced tube formation; also recorded: inhibited | 66±1.2 | – | – | – | – | – | – |
| CCNC(=O)[C@H]1O[C@@H](n2cnc3c(N)ncnc32)[C@H](O)[C@@H]1O [NECA, 5′-N-ethylcarboxamido-adenosine] | – | – | – | – | about 80% | concentration-dependent increase in HREC migration; also recorded: increased migration in a concentration-dependent manner | Neither NECA alone nor NECA in combination with the AdoR antagonists induced chemokinesis | supported extensive tube formation | more than 2 fold | 74.2±2.4 |
| CCCn1c(=O)c2[nH]c(-c3ccc(OCC(=O)NCCN)cc3)nc2n(CCC)c1=O [XAC, xanthine amine congener] | – | abolished NECA-stimulated migration of HREC | – | – | – | – | – | – | – | – |
